In assay [1] the target is GDP-bound NRAS wild-type protein (Homo sapiens, UniProt P01111). Briefly: Binding to NRAS by surface plasmon resonance (SPR), KD and KD ratio to KRAS. The note with it: ratio of KD value for GDP-bound NRAS wild-type protein to KD value for KRAS (SPR). In short, it runs like this: (§1)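 Captured GDP-RAS (~100–300 RU) was exposed to increasing compound concentrations, 75 s per step, in running buffer with 10 µM GDP, 10 mM MgCl2 and 4% DMSO at pH 7.4.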

The next assay deals with HRAS wild-type protein (Homo sapiens, UniProt P01112). Briefly: Binding to HRAS by surface plasmon resonance (SPR), KD and KD ratio to KRAS. The note with it: ratio of KD value for HRAS wild-type protein to KD value for KRAS (SPR). In short, it runs like this:
as §1

For assay [2], the system named is human lung cancer strain NCI-H441. The assay is classed as cell-based. In short, it runs like this:
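Step one: dispense the test compound in serial DMSO dilutions. Step three: add the reagent and measure […].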

Broadly, the IC50 is the concentration needed to halve the response being measured. A lower IC50 goes with greater potency.

*1 amine or outer side, *2 acyl side, *3 side chain or, on linkers, in order; H or OH if unused. Where a SMILES comes first, the peptide text is derived from it. Bridges are numbered along the chain shown (N, C = ends). [ ]: non-standard residue; d: D form. hPhe(3-Cl-4-CF3) = N[C@@H](CCc1ccc(C(F)(F)F)c(Cl)c1)C(=O)O; X8 = CCCN([C@@H](COCCC(C)C)C(=O)[*:2])[*:1]; NMeGly(cPent) = CN[C@H](C(=O)O)C1CCCC1; NMeD = CN[C@@H](CC(=O)O)C(=O)O; NMeL = CN[C@@H](CC(C)C)C(=O)O; NMeA = CN[C@@H](C)C(=O)O; Aze = O=C(O)[C@@H]1CCN1; Ac4c = NC1(C(=O)O)CCC1; Sar = CNCC(=O)O

Chain of HRAS wild-type protein (P01112 whole entry): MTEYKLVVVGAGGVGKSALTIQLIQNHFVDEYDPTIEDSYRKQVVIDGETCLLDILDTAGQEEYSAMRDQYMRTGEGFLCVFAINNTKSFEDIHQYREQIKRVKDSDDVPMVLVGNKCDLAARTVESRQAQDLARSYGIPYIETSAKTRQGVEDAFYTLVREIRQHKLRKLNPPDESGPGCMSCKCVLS
Chain of GDP-bound NRAS wild-type protein (P01111 whole entry): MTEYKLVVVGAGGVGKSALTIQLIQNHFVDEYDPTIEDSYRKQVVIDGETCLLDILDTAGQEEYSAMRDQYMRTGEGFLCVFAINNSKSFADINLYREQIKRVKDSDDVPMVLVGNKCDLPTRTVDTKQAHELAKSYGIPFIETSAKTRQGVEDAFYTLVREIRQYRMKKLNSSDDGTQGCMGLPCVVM

With `CCCN1C(=O)[C@@H]2CCN2C(=O)[C@H](C)N(C)C(=O)[C@H]([C@@H](C)CC)NC(=O)[C@H](CC(C)C)N(C)C(=O)C[C@@H](C(=O)N(C)C)N(C)C(=O)[C@H](C2CCCC2)N(C)C(=O)C2(CCC2)NC(=O)[C@@H]2CCCN2C(=O)[C@H](CCc2ccc(C(F)(F)F)c(Cl)c2)NC(=O)CN(C)C(=O)[C@@H]1COCCC(C)C` [PP1820] ([NMeL]I[NMeA][Aze][X8][Sar][hPhe(3-Cl-4-CF3)]P[Ac4c][NMeGly(cPent)][NMeD]-NMe2; lactam N-11), the “NRAS /KRAS” value in assay [1] is “C (A compound having a KD ratio of 0.1 or more and less than 3 is denoted as C)”. The “HRAS /KRAS” value on HRAS wild-type protein is “C (A compound having a KD ratio of 0.1 or more and less than 3 is denoted as C)”. Further, the IC50 in assay [2] worked out at 40.7 nM.

With `CCO[C@@H]1C[C@H]2C(=O)NC3(CCC3)C(=O)N(C)[C@@H](C3CCCC3)C(=O)N(C)[C@H](C(=O)N(C)C)CC(=O)N(C)[C@@H](CC)C(=O)N[C@@H]([C@@H](C)CC)C(=O)N(C)CC(=O)N(C)[C@H]3C/C=C\CCN(C3=O)[C@@H](Cc3ccc(C(F)(F)F)cc3)C(=O)N(C)CC(=O)N[C@@H](CCc3cc(C)c(Cl)c(C)c3)C(=O)N2C1` [PP1821], in assay [1], the “NRAS /KRAS” value is “A (a compound having 10 or more and less than 20 is denoted as A)”. The “HRAS /KRAS” value on HRAS wild-type protein is “A (a compound having 10 or more and less than 20 is denoted as A)”. The same compound displayed an IC50 in assay [2] of 105 nM.

`CC[C@H](C)[C@@H]1NC(=O)[C@H](CC)N(C)C(=O)C[C@@H](C(=O)N(C)C)N(C)C(=O)[C@H](C2CCCC2)N(C)C(=O)C2(CCC2)NC(=O)[C@@H]2CCCN2C(=O)[C@H](CCc2cc(C)c(Cl)c(C)c2)NC(=O)CN(C)C(=O)[C@H](Cc2ccc(C(F)(F)F)cc2)N2CC/C=C\C[C@@H](C2=O)N(C)C(=O)CN(C)C1=O` [PP1822]: the “NRAS /KRAS” value in assay [1] was “A (a compound having 10 or more and less than 20 is denoted as A)”. At HRAS wild-type protein, the “HRAS /KRAS” value is “B (a compound having 3 or more and less than 10 is denoted as B)”. This compound yielded an IC50 in assay [2] of 107 nM.

Consider `CCO[C@@H]1C[C@H]2C(=O)NC3(CCCC3)C(=O)N(C)[C@@H](C3CCCC3)C(=O)N(C)[C@H](C(=O)N(C)C)CC(=O)N(C)[C@@H](CC)C(=O)N[C@@H]([C@@H](C)CC)C(=O)N(C)CC(=O)N(C)[C@H]3C/C=C\CCN(C3=O)[C@@H](Cc3ccc(C(F)(F)F)cc3)C(=O)N(C)CC(=O)N[C@@H](CCc3cc(C)c(Cl)c(C)c3)C(=O)N2C1` [PP1823], for which, in assay [1], the “NRAS /KRAS” value was “A (a compound having 10 or more and less than 20 is denoted as A)”. Moreover, the “HRAS /KRAS” value at HRAS wild-type protein is “A (a compound having 10 or more and less than 20 is denoted as A)”. The IC50 in assay [2] is 55.9 nM.

On to `CCCN1C(=O)C[C@@H](C(=O)N(C)C)N(C)C(=O)[C@H](C2CCCC2)N(C)C(=O)C2(CCC2)NC(=O)[C@@H]2C[C@@H](OCC)CN2C(=O)[C@H](CCc2cc(F)c(C(F)(F)F)c(F)c2)NC(=O)CN(C)C(=O)[C@H](Cc2ccc(C(F)(F)F)cc2)N2CC/C=C\C[C@@H](C2=O)N(C)C(=O)CNC(=O)[C@H]([C@@H](C)CC)NC(=O)[C@@H]1CC(C)C` [PP1826], for which, in assay [1], the “NRAS /KRAS” value was “A (a compound having 10 or more and less than 20 is denoted as A)”. Besides, on HRAS wild-type protein, the “HRAS /KRAS” value was “A (a compound having 10 or more and less than 20 is denoted as A)”. This compound showed an IC50 in assay [2] of 17.6 nM.

For `CCO[C@@H]1C[C@H]2C(=O)NC3(CC(C)(C)C3)C(=O)N(C)[C@@H](C3CCCC3)C(=O)N(C)[C@H](C(=O)N(C)CC)CC(=O)N(C)[C@H]3CCCC/C=C/c4ccc(cc4)C[C@@H](C(=O)N(C)CC(=O)N[C@@H](CCc4ccc(C(F)(F)F)c(OC)c4)C(=O)N2C1)N1CC/C=C\C[C@@H](C1=O)N(C)C(=O)CN(C)C(=O)[C@H]([C@@H](C)CC)NC3=O` [PP1830], the “NRAS /KRAS” value in assay [1] was “A (a compound having 10 or more and less than 20 is denoted as A)”. In addition, the “HRAS /KRAS” value on HRAS wild-type protein was “B (a compound having 3 or more and less than 10 is denoted as B)”. Further, the IC50 in assay [2] is 4.7 nM.

As for `CCO[C@@H]1C[C@H]2C(=O)NC3(CC(C)(C)C3)C(=O)N(C)[C@@H](C3CCCC3)C(=O)N(C)[C@H](C(=O)N(C)C)CC(=O)N(C)[C@H]3CCCC/C=C/c4ccc(cc4)C[C@@H](C(=O)N(C)CC(=O)N[C@@H](CCc4cc(F)c(C(F)(F)F)c(F)c4)C(=O)N2C1)N1CC/C=C\C[C@@H](C1=O)N(C)C(=O)CN(C)C(=O)[C@H]([C@@H](C)CC)NC3=O` [PP1831], the “NRAS /KRAS” value in assay [1] was “A (a compound having 10 or more and less than 20 is denoted as A)”. The “HRAS /KRAS” value on HRAS wild-type protein was “A (a compound having 10 or more and less than 20 is denoted as A)”. It took 3 nM to reach half-maximal inhibition in assay [2] (IC50).

As to `CCO[C@@H]1C[C@H]2C(=O)NC3(CC(C)(C)C3)C(=O)N(C)[C@@H](C3CCCC3)C(=O)N(C)[C@H](C(=O)N(C)C)CC(=O)N(C)[C@H]3CCCC/C=C/c4ccc(cc4)C[C@@H](C(=O)N(C)CC(=O)N[C@@H](CCc4ccc(C(F)(F)F)c(OC)c4)C(=O)N2C1)N1CC/C=C\C[C@@H](C1=O)N(C)C(=O)CN(C)C(=O)[C@H]([C@@H](C)CC)NC3=O` [PP1832], the “NRAS /KRAS” value in assay [1] was “B (a compound having 3 or more and less than 10 is denoted as B)”. Besides, at HRAS wild-type protein, the “HRAS /KRAS” value was “B (a compound having 3 or more and less than 10 is denoted as B)”. Further, in assay [2], the midpoint of inhibition, the IC50, lay at 2.5 nM.

In the case of `CCO[C@@H]1C[C@H]2C(=O)NC3(CCC3)C(=O)N(C)[C@@H](C3CCCC3)C(=O)N(C)[C@H](C(=O)N(C)CC)CC(=O)N(C)[C@H]3CCC/C=C/c4ccc(cc4)C[C@@H](C(=O)N(C)CC(=O)N[C@@H](CCc4ccc(C(F)(F)F)c(OC)c4)C(=O)N2C1)N1CC/C=C\C[C@@H](C1=O)N(C)C(=O)CN(C)C(=O)[C@H]([C@@H](C)CC)NC3=O` [PP1834], the “NRAS /KRAS” value in assay [1] is “A (a compound having 10 or more and less than 20 is denoted as A)”. For the same compound, at HRAS wild-type protein, the “HRAS /KRAS” value was “B (a compound having 3 or more and less than 10 is denoted as B)”. Further, it took 2.1 nM to reach half-maximal inhibition in assay [2] (IC50).

For the compound `CCO[C@@H]1C[C@H]2C(=O)NC3(CC(C)(C)C3)C(=O)N(C)[C@@H](C3CCCC3)C(=O)N(C)[C@H](C(=O)N(C)CC)CC(=O)N(C)[C@H]3CCC/C=C/c4ccc(cc4)C[C@@H](C(=O)N(C)CC(=O)N[C@@H](CCc4cc(F)c(C(F)(F)F)c(F)c4)C(=O)N2C1)N1CC/C=C\C[C@@H](C1=O)N(C)C(=O)CN(C)C(=O)[C@H]([C@@H](C)CC)NC3=O` [PP1835], in assay [1], the “NRAS /KRAS” value is “A (a compound having 10 or more and less than 20 is denoted as A)”. Also, at HRAS wild-type protein, the “HRAS /KRAS” value is “B (a compound having 3 or more and less than 10 is denoted as B)”. In assay [2], this compound displayed an IC50 of 4.9 nM.

As to `CC[C@H](C)[C@@H]1NC(=O)[C@H](CC)N(C)C(=O)C[C@@H](C(=O)N(C)C)N(C)C(=O)[C@H](C2CCCC2)N(C)C(=O)C2(CC(C)(C)C2)NC(=O)[C@@H]2C[C@H](C)CN2C(=O)[C@H](CCc2ccc(C(F)(F)F)c(OC)c2)NC(=O)CN(C)C(=O)[C@H](Cc2ccc(C)cc2)N2CC/C=C\C[C@@H](C2=O)N(C)C(=O)CN(C)C1=O` [PP1836], the “NRAS /KRAS” value in assay [1] was “A (a compound having 10 or more and less than 20 is denoted as A)”. Also, at HRAS wild-type protein, the “HRAS /KRAS” value was “B (a compound having 3 or more and less than 10 is denoted as B)”. Besides, the IC50 in assay [2] is 10.7 nM.

On to `CC[C@H](C)[C@@H]1NC(=O)[C@H](CC(F)F)N(C)C(=O)C[C@@H](C(=O)N(C)CC)N(C)C(=O)[C@H](C2CCCC2)N(C)C(=O)C2(CC(C)(C)C2)NC(=O)[C@@H]2C[C@@H](C)CN2C(=O)[C@H](CCc2ccc(C(F)(F)F)c(Cl)c2)NC(=O)CN(C)C(=O)[C@H](Cc2ccc(C)cc2)N2CC/C=C\C[C@@H](C2=O)N(C)C(=O)CN(C)C1=O` [PP1837], for which, in assay [1], the “NRAS /KRAS” value was “A (a compound having 10 or more and less than 20 is denoted as A)”. Also, the “HRAS /KRAS” value on HRAS wild-type protein was “A (a compound having 10 or more and less than 20 is denoted as A)”. This compound also yielded an IC50 in assay [2] of 15.6 nM.

`CC[C@H](C)[C@@H]1NC(=O)[C@H](CC)N(C)C(=O)C[C@@H](C(=O)N(C)C)N(C)C(=O)[C@H](C2CCCC2)N(C)C(=O)C2(CC(C)(C)C2)NC(=O)[C@@H]2C[C@@H](C)CN2C(=O)[C@H](CCc2ccc(C(F)(F)F)c(OC)c2)NC(=O)CN(C)C(=O)[C@H](Cc2ccc(C)cc2)N2CC/C=C\C[C@@H](C2=O)N(C)C(=O)CN(C)C1=O` [PP1838]: the “NRAS /KRAS” value in assay [1] was “A (a compound having 10 or more and less than 20 is denoted as A)”. Besides, the “HRAS /KRAS” value on HRAS wild-type protein is “A (a compound having 10 or more and less than 20 is denoted as A)”. Also, half-maximal inhibition in assay [2] (IC50) was put at 20 nM.

For `CC[C@H](C)[C@@H]1NC(=O)[C@H](CC)N(C)C(=O)C[C@@H](C(=O)N(CC)CC)N(C)C(=O)[C@H](C2CCCC2)N(C)C(=O)C2(CC(C)(C)C2)NC(=O)[C@@H]2C[C@H](C)CN2C(=O)[C@H](CCc2ccc(C(F)(F)F)c(OC)c2)NC(=O)CN(C)C(=O)[C@H](Cc2ccc(C)cc2)N2CC/C=C\C[C@@H](C2=O)N(C)C(=O)CN(C)C1=O` [PP1839], in assay [1], the “NRAS /KRAS” value was “A (a compound having 10 or more and less than 20 is denoted as A)”. In addition, the “HRAS /KRAS” value at HRAS wild-type protein was “B (a compound having 3 or more and less than 10 is denoted as B)”. In assay [2], the IC50 turned out to be 24.3 nM.

Turning to `CC[C@H](C)[C@@H]1NC(=O)[C@H](CC)N(C)C(=O)C[C@@H](C(=O)N(CC)CC)N(C)C(=O)[C@H](C2CCCC2)N(C)C(=O)C2(CC(C)(C)C2)NC(=O)[C@@H]2C[C@@H](C)CN2C(=O)[C@H](CCc2ccc(C(F)(F)F)c(OC)c2)NC(=O)CN(C)C(=O)[C@H](Cc2ccc(C)cc2)N2CC/C=C\C[C@@H](C2=O)N(C)C(=O)CN(C)C1=O` [PP1841], in assay [1], the “NRAS /KRAS” value is given as “AA (a compound having 20 or more is denoted as AA)”. Also, the “HRAS /KRAS” value at HRAS wild-type protein was “A (a compound having 10 or more and less than 20 is denoted as A)”. In addition, half-maximal inhibition in assay [2] (IC50) required 24.3 nM.
